Results from US20250002524A1, “CAP ANALOGS HAVING AN ACYCLIC LINKER TO THE GUANINE DERIVATIVE NUCLEOBASE” (CureVac SE, priority 2021, published 2025).
Where two headings read alike, the source gives them in different places.

Target: T1, T7 RNA polymerase (Escherichia phage T7, UniProt P00573)
T1 construct: purchased Thermo Fisher Scientific
Type: biochemical
Description: A DNA sequence was introduced into a modified pUC19 derived vector backbone to comprise a 5′-UTR with a ribozyme cleavage site (the HSD17B4 5′ UTR), a 3′-UTR, a histone-stem-loop structure and a stretch of adenine nucleotides (A100), at the 3′-terminal end. The obtained plasmid DNA was transformed and propagated in bacteria using common protocols and plasmid DNA was extracted, purified, and enzymatically linearized using a restriction enzyme. The obtained linearized plasmid DNA was used for RNA in vitro transcription as outlined next to obtain the mRNA with the sequence shown in SEQ ID NO: 1.
Linearized plasmid DNA template (50 μg/ml) was transcribed at 37° C. for 3-5 hours in 80 mM HEPES/KOH, pH 7.5, 24 mM MgCl2, 2 mM spermidine, 40 mM DTT, 5 U/ml pyrophosphatase (Thermo Fisher Scientific), 200 U/ml RiboLock RNase inhibitor (Thermo Fisher Scientific), 5000 U/ml T7 RNA polymerase (Thermo Fisher Scientific).
The non-modified and modified nucleotide mixture was sequence-optimized (herein referred to as sequence-optimized IVT-mix) preferably in accordance with a procedure as described in WO2015/188933. Example 1. In short, the sequence-optimized IVT-mix comprised the four ribonucleoside triphosphates (NTPs) GTP, ATP, CTP and (modified) UTP in a sequence optimized ratio, wherein the fraction of each of the four ribonucleoside triphosphates in the sequence-optimized IVT-mix corresponded to the fraction of the respective nucleotide in the mRNA molecule to be synthetized, a buffer, a DNA template, and an RNA polymerase. Accordingly, for mRNAs i) and ii) as set out above, the concentrations of the nucleotides were 0.42 mM ATP, 0.57 mM CTP, 0.28 mM UTP, and 0.5 mM GTP (all Thermo Fisher Scientific).
Following RNA in vitro transcription, linear DNA templates were removed by Pulmozyme (Ratiopharm) (2500 U/ml, 3.2 mM CaCl2, 30 min at 37° C.). The obtained mRNAs i) and ii) as well as the mRNAs used in example 3, Table Ex-6; example 4, Table Ex-7; and example 5, FIG. 5 were purified using RP-HPLC (PureMessenger®; according to WO2008/077592). The obtained mRNAs used in example 3, Table Ex-8; example 4, Table Ex-9; and example 5, FIG. 6, were purified using Monarch RNA cleanup kit or Qiagen RNeasy mini kit according to the protocol of the manufacturer and used for dsRNA determination, capping analysis and in vitro expression experiments (example 5).
The capping efficacy can be analyzed by an HPLC assay of a 5′ fragment of mRNAs obtained according to the protocol of example 2. Thus, the peaks obtained in such an HPLC assay are indicative of i) correctly capped mRNA, ii) capped mRNA lacking a single nucleotide G (which is a typical side product if T7 RNA-polymerase is used), iii) uncapped mRNA and iv) further products of unknown structure. 5′ fragments for this kind of analysis are typically 15 to 20 nucleotides in length.
In order to provide fragments of a length of 18 nucleotides (assuming that the Cap-nucleotide is present, the fragment is 18 nucleotides long; for uncapped mRNAs, the fragment is accordingly 17 nucleotides long) for HPLC analysis, the mRNAs i) and ii) obtained in example 2 were first cleaved at the above-mentioned 5′ ribozyme cleavage site using a ribozyme designed to cleave at the relevant position. The ribozyme reaction contained 150 μM of the respective mRNA, 150 μM of the ribozyme, 50 mM NaCl and 0.625 mM EDTA in a total reaction volume of 120 μL. For the annealing reaction, the mixture was incubated in a PCR cycler for 3 min at 95° C., followed by a cool down ramp of 0.1° C. per second to a final temperature of 25° C., with a final incubation of 10 min at 25° C. After addition of 30 μL of a 200 mM MgCl2 solution buffered with 250 mM TRIS/HCl (pH 7.5), the reaction mix was incubated at 25° C. for 1 h. The reaction was stopped by addition of 24 μL of a 250 mM EDTA solution. RNA-only and Ribozyme-only controls were prepared per RNA and ribozyme, respectively.

[1] = Table Ex-8, mRNA capped with 15.23 mM cap0 analog, N1-Methyl-pseudouridine, purified with Monarch RNA cleanup kit or Qiagen RNeasy mini kit
[2] = Table Ex-6, mRNA capped with named cap analog (2.0 mM cap, 0.5 mM GTP), RP-HPLC purified mRNA

T1 sequence (P00573 whole entry): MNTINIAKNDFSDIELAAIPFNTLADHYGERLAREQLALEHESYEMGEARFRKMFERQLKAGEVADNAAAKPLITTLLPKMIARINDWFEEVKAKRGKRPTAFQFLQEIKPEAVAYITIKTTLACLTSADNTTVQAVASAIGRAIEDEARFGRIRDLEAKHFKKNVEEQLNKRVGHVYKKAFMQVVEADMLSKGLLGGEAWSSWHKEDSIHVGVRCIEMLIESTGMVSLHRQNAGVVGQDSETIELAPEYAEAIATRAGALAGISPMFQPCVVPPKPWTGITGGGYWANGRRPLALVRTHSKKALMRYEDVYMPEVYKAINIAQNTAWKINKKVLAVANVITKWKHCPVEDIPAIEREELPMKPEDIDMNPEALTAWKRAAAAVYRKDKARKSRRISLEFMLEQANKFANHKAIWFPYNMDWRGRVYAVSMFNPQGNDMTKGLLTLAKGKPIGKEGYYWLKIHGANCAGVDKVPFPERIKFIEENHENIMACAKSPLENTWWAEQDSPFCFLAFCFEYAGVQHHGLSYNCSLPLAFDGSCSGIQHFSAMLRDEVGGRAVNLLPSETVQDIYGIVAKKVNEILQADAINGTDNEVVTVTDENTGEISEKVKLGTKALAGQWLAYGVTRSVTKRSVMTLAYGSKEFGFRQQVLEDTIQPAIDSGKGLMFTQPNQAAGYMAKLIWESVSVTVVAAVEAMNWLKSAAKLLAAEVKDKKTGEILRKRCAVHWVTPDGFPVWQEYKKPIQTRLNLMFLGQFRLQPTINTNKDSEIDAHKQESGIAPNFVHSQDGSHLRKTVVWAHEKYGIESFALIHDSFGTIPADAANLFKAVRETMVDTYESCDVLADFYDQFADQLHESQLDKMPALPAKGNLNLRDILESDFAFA

`C[n+]1cn(CCSCP(=O)(O)OP(=O)([O-])OP(=O)(O)OC[C@H]2O[C@@H](n3cnc4c(=O)[nH]c(N)nc43)[C@H](O)[C@@H]2O)c2nc(N)[nH]c(=O)c21` [Phosphonate Variant 10] was tested, and the “Relative peak area Capped RNA minus G” value [1] was 23.4%, the “Relative peak area Correctly capped RNA” value [1] was 63.0% and the “Relative peak area Uncapped RNA” value [1] was 8.7%. For the same compound, the “Relative peak area Unidentified peaks” value [1] was 4.9%.
For `C[n+]1cn(CCCOP(=O)(O)OP(=O)([O-])OP(=O)(O)OC[C@H]2O[C@@H](n3cnc4c(=O)[nH]c(N)nc43)[C@H](O)[C@@H]2O)c2nc(N)[nH]c(=O)c21` [Propylene Cap], the “Relative peak area Capped RNA minus G” value [1] was 21.6%, the “Relative peak area Correctly capped RNA” value [1] was 64.7% and the “Relative peak area Uncapped RNA” value [1] was 12.3%. For the same compound, the “Relative peak area Unidentified peaks” value [1] was 1.4%.
For `C[n+]1cn(CC[S+]([O-])CCP(=O)(O)OP(=O)([O-])OP(=O)(O)OC[C@H]2O[C@@H](n3cnc4c(=O)[nH]c(N)nc43)[C@H](O)[C@@H]2O)c2nc(N)[nH]c(=O)c21` (stereo partly drawn) [Phosphonate Variant 5], the “Relative peak area Capped RNA minus G” value [1] was 4.3%, the “Relative peak area Correctly capped RNA” value [1] was 77.1% and the “Relative peak area Uncapped RNA” value [1] was 13.1%. The “Relative peak area Unidentified peaks” value [1] was 5.5%.
`C[n+]1cn(CCCS(=O)(=O)CCP(=O)(O)OP(=O)([O-])OP(=O)(O)OC[C@H]2O[C@@H](n3cnc4c(=O)[nH]c(N)nc43)[C@H](O)[C@@H]2O)c2nc(N)[nH]c(=O)c21` [Phosphonate Variant 9] was tested, and the “Relative peak area Capped RNA minus G” value [1] was 4.4%, the “Relative peak area Correctly capped RNA” value [1] was 73.4% and the “Relative peak area Uncapped RNA” value [1] was 15.7%. The “Relative peak area Unidentified peaks” value [1] was 6.5%.
For `C[n+]1cn(CCS(=O)(=O)CP(=O)(O)OP(=O)([O-])OP(=O)(O)OC[C@H]2O[C@@H](n3cnc4c(=O)[nH]c(N)nc43)[C@H](O)[C@@H]2O)c2nc(N)[nH]c(=O)c21` [Phosphonate Variant 12], the “Relative peak area Capped RNA minus G” value [1] was 8.6%, the “Relative peak area Correctly capped RNA” value [1] was 75.5% and the “Relative peak area Uncapped RNA” value [1] was 12.2%. The “Relative peak area Unidentified peaks” value [1] was 3.7%.
In the case of `C[n+]1cn(CCS(=O)(=O)CCP(=O)(O)OP(=O)([O-])OP(=O)(O)OC[C@H]2O[C@@H](n3cnc4c(=O)[nH]c(N)nc43)[C@H](O)[C@@H]2O)c2nc(N)[nH]c(=O)c21` [Phosphonate Variant 6], the “Relative peak area Capped RNA minus G” value [1] was 4.2%, the “Relative peak area Correctly capped RNA” value [1] was 75.5% and the “Relative peak area Uncapped RNA” value [1] was 14.9%. The “Relative peak area Unidentified peaks” value [1] was 5.4%.
In the case of `C[n+]1cn(C[S+]([O-])CCCP(=O)(O)OP(=O)([O-])OP(=O)(O)OC[C@H]2O[C@@H](n3cnc4c(=O)[nH]c(N)nc43)[C@H](O)[C@@H]2O)c2nc(N)[nH]c(=O)c21` (stereo partly drawn) [Phosphonate Variant 2], the “Relative peak area Capped RNA minus G” value [1] was 6.3%, the “Relative peak area Correctly capped RNA” value [1] was 76.9% and the “Relative peak area Uncapped RNA” value [1] was 15.0%. The “Relative peak area Unidentified peaks” value [1] was 1.8%.
In the case of `C[n+]1cn(C2OC(COP(=O)(O)OP(=O)([O-])OP(=O)(O)OCC3OC(n4cnc5c(=O)[nH]c(N)nc54)C(O)C3O)C(O)C2O)c2nc(N)[nH]c(=O)c21` (stereo not drawn) [mCap, m7G(5′)ppp(5′)G, reference compound], the “Relative peak area Capped RNA minus G” value [2] was 8.6%, the “Relative peak area Uncapped RNA” value [2] was 19.8% and the “Relative peak area Unidentified peaks” value [2] was 10.1%. The “Relative peak area Correctly capped RNA” value (Table Ex-6, mRNA capped with named cap analog (2.0 mM cap, 0.5 mM GTP), RP-HPLC purified mRNA, 5′ fragment, UV 260 nm) was 61.5%, the “Relative peak area Capped RNA minus G” value [1] was 12.2% and the “Relative peak area Correctly capped RNA” value [1] was 63.3%. The “Relative peak area Uncapped RNA” value [1] was 20.3% and the “Relative peak area Unidentified peaks” value [1] was 4.2%.
